In US10293027B2, “Methods for treating metabolic disorders using FGF” (Salk Institute for Biological Studies, priority 2010, dated 2019):

Experiments:
ob/ob male mice = experiment: Daily FGF-1 or rosiglitazone treatment of ob/ob mice: fed blood glucose and body composition (Example 5); format: in vivo, mouse; conditions: fed ob/ob male mice, one hour after treatment; FGF-1 0.5 mg/kg/day s.c., TZD 5 mg/kg/day p.o.; about 400 mg/dl before treatment
Method: FIGS. 7A-7H. FGF-1 injection studies in rodents. (A) Fed blood glucose in ob/ob male mice treated with FGF-1 (0.5 mg/kg, s.c.), rosiglitazone (TZD, 5 mg/kg, p.o.), or vehicle. FGF-1 was administered once daily, and blood glucose levels were measured at day 0 (basal levels before FGF-1 injection), day 3, and day 6, 1 hour after injection. The values (±SE) shown are the average of the measurements of 5 animals in a group; (B) Sustained glucose lowering effects of FGF-1: Fed blood glucose levels in ob/ob mice at indicated time points after the last FGF-1 injection at day 6. (C-H): 72 hrs after the sixth dose, another dose was given and effects of FGF-1 and TZD on (C) body weight, (D) total body fat, (E) lean weight, (F) weight gain, (G) liver weight, and (H) heart weight were determined.
In Example 5, ob/ob male mice (8 wk old) were randomized into three groups and treated with daily subcutaneous (s.c.) injections of recombinant mouse FGF-1 (0.5 mg/kg in PBS), oral rosiglitazone (TZD, 5 mg/kg in 0.5% carboxymethyl cellulose), or vehicle. Blood glucose levels were measure in fed animals one hour after treatment. Total body composition analysis was performed using an EchoMRI-100™ (Echo Medical Systems, LLC).
Eight-week-old male ob/ob mice were treated with recombinant mouse FGF-1 (0.5 mg/kg/day, s.c. in 250 μl), rosiglitazone (TZD, 5 mg/kg/day, p.o. in 300 μl), or vehicle control (s.c. vehicle control 0.9% NaCl, 250 μl/mouse; p.o. vehicle control 0.5% CMC, 300 μl/mouse). Blood glucose was measured one hour after treatment at day 3 and day 6 using a standard protocol. (FIG. 7A).
Before treatment, all groups were severely hyperglycemic, as indicated by blood glucose levels of about 400 mg/dl. […] At 6 days, blood glucose levels were even further reduced to around 130-140 mg/dl for both groups. After the sixth dose, blood glucose levels were monitored for another 72 hrs. During this period, both FGF-1- and TZD-treated cohorts maintained normoglycemic levels (<140 mg/dl) for at least 48 hrs (FIG. 7B). At 72 hrs after the sixth dose, a final dose was given, and 12 hrs later, a total body composition analysis was performed by MRI followed by necropsy.

ob/ob mice = experiment: Single s.c. injection of human FGF1 or other FGFs, blood glucose in ob/ob mice (Examples 13, 14); format: in vivo, mouse; conditions: 0.5 mg/kg s.c.
Method: FIG. 26. Human recombinant FGF-1 is effective in mice.
FIG. 27. Comparison of FGF1, FGF2, FGF9, and FGF10 effects. Single subcutaneous injection of FGFs (0.5 mg/kg) in ob/ob mice.
As human recombinant FGF-1 is already being used in the clinic, the present methods of using it to treat metabolic disorders offer a straightforward regulatory path to treatment.
As explained above, the FGF family of factors bind to members of the FGFR family of receptors with different specificities. FGF-1 binds preferentially to FGFR1 and FGFR4, and can be internalized into a cell expressing these receptors. To determine if other FGF proteins have similar metabolic effects as FGF-1, we tested blood glucose in ob/ob mice treated with FGF-2, FGF-9, and FGF-10 (0.5 mg/kg s.c.). This combination of FGF proteins binds to the spectrum of FGFRs.

Row | Molecule | blood glucose levels at day three (ob/ob male mice) | blood glucose in ob/ob mice after a single s.c. injection (ob/ob mice) | blood glucose in ob/ob mice after a single s.c. injection (ob/ob mice; listed as hrFGF-1)
1 | CN(CCOc1ccc(CC2SC(=O)NC2=O)cc1)c1ccccn1 (centres unmarked) [rosiglitazone, reference compound] | about 200 mg/dl |  | 
2 | FGF2: other FGF protein tested for comparison with FGF-1 [reference compound] |  | Only FGF1 has glucose normalizing effects | 
3 | human FGF1: human recombinant FGF-1; human protein is 155 amino acids, SwissProt P05230.1 |  | normalizes blood glucose | can effectively reduce glucose levels
4 | FGF10: other FGF protein tested for comparison with FGF-1 (protein, UniProt O15520 38-208, looked up) Fibroblast growth factor 10: QALGQDMVSPEATNSSSSSFSSPSSAGRHVRSYNHLQGDVRWRKLFSFTKYFLKIEKNGKVSGTKKENCPYSILEITSVEIGVVAVKAINSNYYLAMNKKGKLYGSKEFNNDCKLKERIEENGYNTYASFNWQHNGRQMYVALNGKGAPRRGQKTRRKNTSAHFLPMVVHS |  | Only FGF1 has glucose normalizing effects | 
